1 compound from paper PMC10590756, “Glutarate regulates T cell metabolism and anti-tumour immunity” (Nature Metabolism, 2023) can be followed below.

The subject of one data set is murine OT1 T cells. As to the kind of experiment: Growth of murine OT1 T cells. The settings on record: 500 µM, 7 days. It is filed as cell-based, mouse. The protocol: B16F10 cells were originally purchased from ATCC (catalogue no. CRL-6475) and genetically modified to express OVA, enhanced green fluorescent protein (GFP) and neomycin phosphotransferase. The resulting OVA expression B16F10-OVA cells were cultured in DMEM (catalogue no. 11995065, Thermo Fisher Scientific) containing 0.75 mg ml^−1 G418 sulphate (catalogue no. 10131027, Thermo Fisher Scientific). HEK 293T cells were purchased from Takara Bio (catalogue no. 632180) and cultured in DMEM. SKOV3 was purchased from ATCC (catalogue no. HTB-77) and cultured in McCoy’s 5A (Modified) Medium (catalogue no. 16600082, Thermo Fisher Scientific). Raji-GFP-Luc cells were purchased from Biocytogen (catalogue no. B-HCL-010) and cultured in Roswell Park Memorial Institute (RPMI) 1640 (catalogue no. 21875, Thermo Fisher Scientific). Jurkat cells were purchased from ATCC (catalogue no. TIB-152) and cultured in RPMI 1640. RAW 264.7 cells were purchased from ATCC (catalogue no. TIB-71) and cultured in RPMI 1640. HeLa cells were a gift from P. Lehner (University of Cambridge) and were authenticated using short tandem repeat profiling (Eurofins Genomics). HeLa cells were cultured in DMEM. […] Cell number and viability was determined using the ADAM-MC Automated Cell Counter (NanoEntek), CellDrop Automated Cell Counter (DeNovix) or TC20 Automated Cell Counter (Bio-Rad Laboratories).

The subject of another data set is human CD8^+ T cells. As to the kind of experiment: Markers of T cell differentiation and exhaustion by flow cytometry. It is filed as cell-based. How it is done:
Single-cell suspensions were stained with LIVE/DEAD Fixable Near-IR Dead Cell Stain Kit (catalogue no. 10119, Thermo Fisher Scientific) followed by surface and intracellular staining with fluorochrome-labelled antibodies (Supplementary Tables 1 and 2). Staining of cytoplasmic and nuclear antigens was performed using the Cytofix/Cytoperm Fixation/Permeabilization Kit (catalogue no. 554714, BD Biosciences) and the Transcription Factor Buffer Set (catalogue no. 562725, BD Biosciences), respectively. For the proliferation assays, cells were loaded with CellTrace Violet (catalogue no. C34557, Thermo Fisher Scientific) according to the manufacturer’s instructions. Samples were acquired on an Aurora (Cytek Biosciences).
(A flow cytometer gives signals particle by particle.)

Data set [1] has as its system protein glutarylation in human CD8^+ T cells. The experiment in a line: Pan-lysine glutarylation western blot. It counts as cell-based. How it is done:
We determined this first by undertaking whole-protein lysate western blot analyses with a pan-lysine glutarylation (K-glutarylation) antibody[36],[38]. […] Glutarylation patterns were also altered when cells were exposed to different oxygen tensions (Fig. 3c and Extended Data Fig. 3a) and when treated with DEG (Fig. 3d and Extended Data Fig. 3b). […] Since, as shown in Extended Data Fig. 1g, DEG is converted within 15 min to glutarate intracellularly, it is likely that the DEG-induced glutarylation observed after 30 min of DEG treatment is a direct result of increases in intracellular glutarate.
Cell pellets were lysed by either urea-Tris buffer (8 M urea, 50 mM Tris-HCl (pH 7.5), 150 mM β-mercaptoethanol), sonicated twice for 45 s intercalated with 1 min incubation on ice and centrifuged at 14,000g, 4 °C for 15 min or by RIPA Lysis and Extraction Buffer (catalogue no. 89900, Thermo Fisher Scientific), according to the manufacturer’s instructions. Nuclear and cytosolic fractions were prepared from cells using the NE-PER kit (catalogue no. 78833, Thermo Fisher Scientific). Histones were extracted with the Histone Extraction Kit (catalogue no. ab113476, Abcam). Proteins were separated by SDS–PAGE and transferred to polyvinylidene fluoride (PVDF) membranes. Total protein stain was obtained using non-stain protein labelling reagent (catalogue no. A44448, Thermo Fisher Scientific). […]
Background: Immunoblotting shows a protein as a band on a membrane.

The next data set concerns CD8^+ T cells. The experiment in a line: Acetyl-CoA measurement. It is filed as cell-based, human. The settings on record: 500 µM DEG, 30 min or 7 days. The protocol: Acetyl-CoA levels were determined using an acetyl-CoA assay kit (catalogue no. MAK039, Sigma-Aldrich). After culture, 2 × 10^6 cells per condition were collected, washed twice with ice-cold PBS and resuspended in 500 µl of the assay buffer. Following deproteinization by adding 2 µl 1M perchloric acid, samples were sonicated and the assay was performed according to the manufacturer’s instructions. Data were acquired on the FLUOstar Omega.

Setting [2] is: 10 days of DEG treatment, 500 µM.

As for `CCOC(=O)CCCC(=O)OCC` [DEG, Diethyl glutarate], the “growth of murine OT1 T cells” value with murine OT1 T cells is “did not affect the growth”. Besides, in the data set with human CD8^+ T cells (setting [2]), the “expression of LAG3” value is “downregulated”, the “expression of TIM3” value was “downregulated” and the “expression of TOX” value is “downregulated”. The “expression of granzyme B (GZMB)” value with human CD8^+ T cells (DEG 500 µM, 7-10 days) is recorded as “increases”. Also, in data set [1] (500 µM DEG), the “time of culture with DEG after which shifts in glutarylation could be detected” value stood at 30 min. In data set [1] (increasing concentrations of DEG, 7 days), the glutarylation patterns result was “altered”. Besides, the acetyl-CoA levels result in the data set on CD8^+ T cells is given as “not lower”.
